Source: patent US8883856B2, “Compositions and methods for the treatment of inflammatory diseases using topoisomerase inhibitors” (priority 2000, dated 2014)
≈ marks a conversion by molar mass, not a printed value. Like-named read-outs stand apart in the source and are kept apart here.

Tests used:
surgical adhesions = assay type: in vivo; details: drug-loaded crosslinked HA films (camptothecin 2.5%, doxorubicin 2.5%, beta-lapachone 5%, curcumin 10%), rats
Procedure: The rat caecal-sidewall adhesion model was used to test efficacy of crosslinked hyaluroinc acid (HA) polymeric films loaded with one of the following compounds; camptothecin 2.5% loading (w/w to polymer), curcumin 10%, doxorubicin 2.5%, beta-lapachone at 5% or unloaded-no-drug control. Films of 2-2.5 cm^2 were prepared with each drug by the method described in example 10. ETO sterilized, and divided in half at the time of surgical implantation. Sham surgeries omitted the application of HA film as separate controls.
Sprague Dawley rats, 15 male and 15 female, weighing 250-400 g were anaesthetized with Halothane (5%) and maintained, by nose cone, on 1.5-2% Halothane. Surgeries were conducted under sterile conditions. The abdomen was shaved, scrubbed with an antiseptic wash, and opened at the linea alba with a 3 cm incision. A region of the abdominal cavity immediately opposite the large bowel was isolated with bowel clamps, and a #11 scalpel blade was used to score a section of the transversus muscle, describing a rectangle 1×1.5 cm. The muscle was stripped from the peritoneal sidewall with forceps, and minor bleeding was arrested by tamponade. The large bowel was then externalized with sterile swabs, and caecal contents evacuated into the large bowel. Both surfaces of the caecum were stroked, 45 times on each side, with a #10 scalpel blade to produce erythema and punctated bleeding. Each stroke spanned the caecal diameter (approximately 1 cm), and extended along 1.5 cm of the caecal extremity. In only one case did this abrasion procedure cause sustained bleeding requiring ligation. Following 90 blade strokes, the integrity of the tissue was confirmed, and caecum and large bowel were replaced in the pelvis.
The film was laid over the rectangular sidewall abrasion (except in the case of sham surgeries), covering the area of damaged tissue. The abraded caecum, relocated in its previous orientation, was than overlaid such that the entire sidewall wound and film were covered by it. Four tacking sutures were placed at the outer extremities of the abraded area of the caecum securing it to the intact peritoneal sidewall immediately outside the rectangular wound area. The abdomen was closed in two layers, and antibiotics administered intramuscularly before the animal regained consciousness.
. Adhesions over, and adjacent to the caecum were rated according to the following findings: 0: No adhesions connecting caecum to sidewall wound; 1: Filmy or stranded were separable by blunt dissection; 2: Cohesive adhesions attaching the caecum to the sidewall were separable by aggressive blunt dissection; 3: Adhesions inseparable without cutting, or without tearing/damaging caecum. Fractions were assigned where a variety of ratings seemed applicable.

human neutrophils = assay: Neutrophil chemiluminescence (neutrophil activation); assay type: cell-based; details: Homo sapiens, Neutrophil; activation by MSUM crystals; read-out: IC 50, inhibition of neutrophil chemiluminescence
Procedure: Freshly prepared human neutrophils were incubated with the compound followed by stimulation of the cells with either plasma opsonized CPPD crystals, the bacterial chemoattractant, fMLP or the phorbol ester, PMA. Stimulation (or activation) of the cells induced superoxide anion generation which could be measured by the emission of light (chemiluminescence). Inhibition of neutrophil function was then determined by inhibition of chemiluminescence. Hanks buffered salt solution (HBSS) pH 7.4 was used throughout the study. All chemicals were purchased from Sigma Chemical Co. (St. Louis, Mo.) unless otherwise stated. All procedures were performed at 37° C. unless otherwise stated. CPPD (triclinic) crystals were prepared and characterized as previously reported (Jackson J K et al., J Rheumatol, 24: 341-348, 1996). The size distribution of the crystals was approximately 33% less than […]. Opsonization of crystals was carried out using 50% heparinized plasma and concentrations of 50 mg of CPPD in 1 mL of 50% plasma. Crystals were incubated with diluted plasma for 30 min at 37° C., centrifuged at 1000×g, then washed in HBSS and recentrifuged. Neutrophils were prepared from freshly collected, human, citrated whole blood. Briefly, 400 mL of blood were mixed with 80 mL of 4% dextran T500 (Pharmacia LKB, Biotechnology AB Uppsala, Sweden) in HBSS and allowed to settle for 1 h. Plasma was collected continuously and 5 mL applied to 5 mL Ficoll Paque (Pharmacia) in 15 mL polypropylene tubes (Corning, N.Y.). Following centrifugation at 500×g for 30 min, the neutrophil pellets were washed free of erythrocytes by 20 s of hypotonic shock. Neutrophils were resuspended in HBSS, kept on ice and used for experiments within 3 h. Neutrophil viability and purity was always greater than 90%.
A stock solution of drug was diluted in DMSO to give various concentrations of drug. Equal volumes of these solutions were added to neutrophils at 5×10^6 cells per mL under mild vortexing to achieve final concentrations with a final DMSO concentration of 0.25%. This DMSO concentration found to have no effect on control cell responses. Cells were incubated for 15 minutes at 37° C. before addition to crystals, fMLP or PMA.
Chemiluminescence studies were performed at a cell concentration of 5×10^6 cells per mL in HBSS with CPPD (50 mg/mL). In all experiments 0.5 mL of cells were added to 25 mg of CPPD or 1 uM fMLP (and 0.5 uM cytochalasin B) or 0.5 uM PMA in 1.5 ml Eppendorf tubes. To the tubes were added 10 uL of luminol dissolved in 25% DMSO in HBSS to give a final concentration of 1 μM and the samples were mixed to initiate neutrophil activation. Chemiluminescence was monitored using an LKB Luminometer (Model 1250) at 37° C. with shaking immediately prior to measurements to resuspend the crystals. Control tubes contained cells, drug and luminol (crystals absent).

[1] = tested on: smooth muscle cells (A7r5 rat embryonic thoracic aorta); assay: MTT proliferation/cytotoxicity assay, smooth muscle cells; assay type: cell-based; details: A7R5, 48 h, read-out: inhibitory concentration that gave 50% effect on proliferation (IC50), smooth muscle cells
Procedure: (§1) Proliferation was determined using the MTT proliferation/cytotoxicity assay.
(§2) On day one, 1500-2000 smooth muscle cells (A7r5 rat embryonic thoracic aorta) or synoviocytes (HIG.82 rabbit) were plated per well on a 96-well plate, leaving the first column free of cells (blank). The plate was placed back into the 37° C., CO2 incubator. The following day camptothecin was added at various concentrations. No drugs were added to the first column (blank) and the second column (untreated column) for control. The cells were exposed for 24, 48, and 72 hours. At the end of the exposure period, 50 μl of dimethylthiazol diphenyltetrazolium bromide salt (MTT) dissolved in media was added and allowed to incubate for 4 hours at 37° C. The medium was then aspirated and 200 μl of dimethyl sulfoxide was added. The plate was agitated for 30 minutes and the absorbance read at 562 nm. The optical density measurement was converted to number of cells using a standard plot of optical density with known number of cells and cell viability was expressed as % growth (this value is the % of the control cells).

[2] = tested on: synoviocytes (HIG.82 rabbit); assay: MTT proliferation/cytotoxicity assay, synoviocytes; assay type: cell-based; details: Oryctolagus cuniculus, 48 h, read-out: inhibitory concentration that gave 50% effect on proliferation (IC50), synoviocytes
Procedure: as §1, §2

caspase 3 = assay: Caspase 3 activation in neutrophils (caspACE assay system); assay type: cell-based, human
Excerpt: (§3) The inflammation associated with many forms of arthritis is thought to arise from the presence of large numbers of immune cells, such as neutrophils, in the synovial joints of humans. The extended inflammation associated with crystal induced arthritis arises from the interaction of neutrophils with crystals in the synovial joint. One reason the extended duration of the inflammation in this disease may be due to the inhibition of neutrophil apoptosis by crystals. This inhibition may result in the neutrophils remaining in the joint for extended periods. Compounds that overcome this crystal induced suppression of neutrophil apoptosis therefore allow the more rapid clearance of these cells from the joint with the appropriate abatement of inflammation. The process of apoptosis involves the endonuclease driven cleavage of DNA into fragments which may be visualized as a ladder of bands in an agarose gel electrophoresis experiment. Other assays that may be used include caspase 3 quantitation or measurements of cytoplasmic DNA concentration. […] Agents that inhibit caspase activation levels or reduce cytoplasmic DNA are pro-survival (potentially inflammatory) and agents that promote are pro-apoptotic and anti-inflammatory. The use of these methods and their role in neutrophil affected inflammation is described in detail in Tudan et al. J Rheumatol. 27 p 2463-72. 2000.
(§4) Methods: Agarose gel banding/laddering of 180 base pairs: Neutrophils were separated from fresh human blood by standard methods (dextran sedimentation and ficoll paque centrifugation) and suspended in buffer at a concentration of 1×10^6 cells/ml. The cells were then incubated with crystals of calcium pyrophosphate dihydrate (CPPD) for 1 hours at 37° C. The cells were then incubated with or without camptothecin (0.1 uM) for 4 hours at 37° C. Neutrophil aliquots (1×10^6 cells) from different conditions were resuspended in 480 μl of lysis buffer (0.6% SDS, 10 mM Tris, 1 mM EDTA (pH 7.0)) and after vigorous mixing were allowed to sit on ice for 20 min after addition of 120 μl of 5M NaCl. In caspase 3 and DNA fragmentation assays a milder detergent (Triton) was used to lyse only the plasma membrane of the cells so that cytoplasmic contents (caspase 3 or DNA fragments) could be assayed. Samples were sedimented at 14,000 rpm at 4° C. for 20 min. The pellet was dried and resuspended in phenol:chloroform. Four hundred fifty μl of the upper phase was added to a new tube, which was then charged with 950 μl of […] and held at −20° C. for 10 min. The DNA was sedimented at 14,000 rpm (4° C.) and carefully washed in 75% ethanol without disturbing the pellet. The DNA was dried at 37° C. and then resuspended in 20 μl sample buffer (50% TBE with 1 μl of 1 ng/ml RNase A (Pharmacia)). The samples were vortexed and allowed to stand at 37° C. for 10 min. Five μl of loading dye (20% Ficoll Paque (Pharmacia), 0.1% bromophenol blue, 0.1% xylene cyanole) was added. Electrophoresis was carried out in 2% agarose at 80 mA, and the gel was then stained with ethidium bromide (Pharmacia) and photographed under U.V. illumination.
Caspase 3 activation was assayed using a commercial kit for this enzyme (caspACE assay system, Promega Scientific) and cyotplasmic DNA was assayed using a commercial kit (Cell death detection ELISA-Boehringer—Mannheim).

neutrophils = assay: Cytoplasmic DNA fragmentation in neutrophils (Cell death detection ELISA); assay type: cell-based, human
Excerpt: as §3
as §4, with “The samples were vortexed and allowed to stand at 37° C. for 10 min. Five μl of loading dye (20% Ficoll Paque (Pharmacia), 0.1% bromophenol blue, 0.1% xylene cyanole) was added. Electrophoresis was carried out in 2% agarose at 80 mA, and the gel was then stained with ethidium bromide (Pharmacia) and photographed under U.V. illumination.” left out

With COc1cc(/C=C/C(=O)CC(=O)/C=C/c2ccc(O)c(OC)c2)ccc1O [curcumin] the “surgical adhesion formation, in words” value (surgical adhesions) was “no inhibition of adhesion formation” and the “surgical adhesion formation, in words” value (surgical adhesions; listed as circumin) was “no inhibitory effect on surgical adhesion formation in rats”.

O=C1C=CC(=O)c2c(O)cccc21 [juglone] showed an IC50 (human neutrophils) of 0.5 to 1 µg/mL (≈ 2.87 to 5.74 µM), an IC50 [1] of 2000 nM and an IC50 [2] of 4.3 µM.

In the case of O=C1c2c(O)ccc(O)c2C(=O)c2c(NCCNCCO)ccc(NCCNCCO)c21 [mitoxantrone], the “caspase 3 activation in neutrophils” value (caspase 3) is reported as “induced an increase in the activation of caspase 3 levels” and the “cytoplasmic DNA fragments in neutrophils” value (neutrophils) is reported as “significant increase in cytoplasmic DNA”.

In the case of COC(=O)[C@@H]1c2cc3c(c(O)c2[C@@H](O[C@@H]2O[C@@H](C)[C@H](OC)[C@@](C)(OC)[C@H]2OC)C[C@]1(C)O)C(=O)c1c(O)cc2c(c1C3=O)O[C@@H]1O[C@@]2(C)[C@H](O)[C@@H](N(C)C)[C@@H]1O [nogalamycin], the “caspase 3 activation in neutrophils” value (caspase 3) is reported as “induced an increase in the activation of caspase 3 levels”.
